Data as given in PubChem BioAssay AID1963853 (Molecular Pharmacology Branch, DTP, NCI, 2024).

Tested on: 266295-075-R-J1-PDC spheroid viability
Test: Anticancer human tumor 266295-075-R-J1-PDC patient-derived head and neck squamous carcinoma cell line growth inhibition [POLQ]
Settings: spheroids with HUVEC and MSC; for IC50: curve of first compound; for viability, T/C: stronger effect = lower value
Procedure: Multicellular complex tumor spheroid response to Polymerase (POL) inhibitors (novobiocin, ART-558, RP6685) in combination with a variety of drugs and investigational agents in selected tumor cell lines
The POL inhibitors (novobiocin, ART-558, and RP6685) were evaluated both individually and in combination with standard of care and investigational anticancer small molecules within a complex spheroid model of solid tumors. . Complex spheroids include a stromal component modeled by human endothelial cells (HUVEC) and fibroblasts modeled by human mesenchymal stem cells (MSCs). The concentration ranges selected for each drug and investigational agent were based upon clinically achievable concentrations if the clinical Cmax of the agent was known.
Compounds. The drugs and investigational agents: novobiocin (NSC847541), ART-558 (NSC835418), RP-6685 (NSC848927), peposertib (NSC802822), ceralasertib (NSC780249), elimusertib (NSC800525), camonsertib (NSC841442), AZD-1390 (NSC803789), olaparib (NSC753686), talazoparib (NSC767125), rucaparib (NSC756644), sotorasib (NSC818433), MRTX-1133 (NSC836407), SN-38 (NSC673596), topotecan (NSC609699), epotoside (NSC141540), doxorubicin (NSC123127), gemcitabine (NSC613327), 5-fluorouracil (NSC19893), paclitaxel (NSC125973), vemurafenib (NSC761431), MSA-2 (NSC828583), SN-011 (NSC837082), adavosertib (NSC754352), prexasertib (NSC758257), carboplatin (NSC241240) and oxaliplatin (NSC266046), were obtained from the National Cancer Institute (NCI) Developmental Therapeutics Program Chemical Repository (21). The FDA-approved anticancer drug set is available from the Developmental Therapeutics Program at https://dtp.cancer.gov/organization/dscb/obtaining/. […] The stock solutions were prepared in dimethyl sulfoxide (DMSO, Sigma-Aldrich, St. Louis, MO, cat. D2650), except for the platinum compounds which were prepared in saline (Quality Biological, Gaithersburg, MD, cat. 114-055-101), at 800-fold the tested concentration and stored at -70 degrees C prior to their use. All drugs and investigational agents were tested over a range starting from a high concentration at or near the clinical Cmax and decreasing in half-log increments. If the clinical Cmax for an agent had not been determined, the highest concentration tested was 10 microM, except for SN-38, which was tested at a high concentration of 1 microM.
Cell Culture. All cells were maintained in an incubator at 37 degrees C and 5% CO2 with 95% humidity. The PDC lines were cultured according to standard operating procedures established by the NCI PDMR (https://pdmr.cancer.gov). Table 3 of the manuscript, lists the cell lines along with the number of the three cell types plated to form the mct-spheroids and media for tumor cell growth. After thawing, all PDC lines, except 997537-175-T-J1-PDC and 415267-285-R-J2-PDC, were cultured in Matrigel-coated flasks prepared with a working solution of 1X Ham's F-12 nutrient mix, without supplementation (Thermo Fisher Scientific, cat. 11765054), 100 U/mL penicillin-streptomycin (Thermo Fisher Scientific, cat. 15140122), and 2.5% Matrigel (Corning Inc., Corning, NY, cat. 354248) for the first three passages. The two PDC lines 997537-175-T-J1-PDC and 415267-285-R-J2-PDC were cultured on uncoated flasks. The 857933-349-R-J2-PDC line was cultured in 6C/Colon 1B media containing advanced DMEM/F-12 (Thermo Fisher Scientific, cat. 12634028), 10 mM HEPES (Thermo Fisher Scientific, cat. 15630080), 1X GlutaMAX supplement (Thermo Fisher Scientific, cat. 35050061), 0.1 mg/mL primocin (InvivoGen, San Diego, CA, cat. ant-pm-2), 10% defined fetal bovine serum, heat inactivated (HyClone Laboratories Inc., Logan, UT, cat. SH30070.03HI), 50% L-WRN conditioned media (ATCC, cat. CRL-3276), 1.25 mM N-Acetyl-L-cysteine (Sigma-Aldrich, cat. A9165), 10 mM nicotinamide (Sigma-Aldrich, cat. N0636), 1X B-27 supplement (Thermo Fisher Scientific, cat. 17504044), 1X N-2 supplement (Thermo Fisher Scientific, cat. […]

[1] = second compound 0.0316 µM, first compound 0.0316 µM
[2] = second compound 0.0316 µM, first compound 0.1 µM
[3] = second compound 0.1 µM, first compound 0.0316 µM
[4] = second compound 0.1 µM, first compound 0.1 µM
[5] = second compound 0.316 µM, first compound 0.0316 µM
[6] = second compound 0.316 µM, first compound 0.1 µM
[7] = second compound 1 µM, first compound 0.0316 µM
[8] = second compound 1 µM, first compound 0.1 µM
[9] = second compound 3.16 µM, first compound 0.0316 µM
[10] = second compound 3.16 µM, first compound 0.1 µM
[11] = second compound 10 µM, first compound 0.0316 µM
[12] = second compound 10 µM, first compound 0.1 µM
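Note: spheroids exposed to compounds for seven days before readout.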

Question: How did the IC50 (second compound 0.0316 µM) turn out when `C=CC(=O)N1CCN(c2nc(=O)n(-c3c(C)ccnc3C(C)C)c3nc(-c4c(O)cccc4F)c(F)cc23)C(C)C1` (centres undefined) + COC1C(OC(N)=O)C(O)C(Oc2ccc3c(O)c(NC(=O)c4ccc(O)c(CC=C(C)C)c4)c(=O)oc3c2C)OC1(C)C was run?
Answer: > 10 µM

Question: What about the IC50 (second compound 0.1 µM) of the same compound?
Answer: > 10 µM

Question: And the IC50 (second compound 0.316 µM)?
Answer: > 10 µM

Question: And the IC50 (second compound 1 µM)?
Answer: > 10 µM

Question: And the IC50 (second compound 3.16 µM)?
Answer: > 10 µM

Question: What about the IC50 (second compound 10 µM) of the same compound?
Answer: > 10 µM

Question: What about the viability, T/C [1] of the same compound?
Answer: 88.8%

Question: What about the viability, T/C [2] of the same compound?
Answer: 94.7%

Question: What about the viability, T/C (second compound 0.0316 µM, first compound 0.316 µM) of the same compound?
Answer: 133%

Question: What about the viability, T/C (second compound 0.0316 µM, first compound 1 µM) of the same compound?
Answer: 118%

Question: What about the viability, T/C (second compound 0.0316 µM, first compound 3.16 µM) of the same compound?
Answer: 112%

Question: And the viability, T/C (second compound 0.0316 µM, first compound 10 µM)?
Answer: 112%

Question: And the viability, T/C [3]?
Answer: 98.7%

Question: What about the viability, T/C [4] of the same compound?
Answer: 90.6%

Question: And the viability, T/C (second compound 0.1 µM, first compound 0.316 µM)?
Answer: 94%

Question: And the viability, T/C (second compound 0.1 µM, first compound 1 µM)?
Answer: 104%

Question: What about the viability, T/C (second compound 0.1 µM, first compound 3.16 µM) of the same compound?
Answer: 96%

Question: And the viability, T/C (second compound 0.1 µM, first compound 10 µM)?
Answer: 129%

Question: What about the viability, T/C [5] of the same compound?
Answer: 96.9%

Question: What about the viability, T/C [6] of the same compound?
Answer: 103%

Question: What about the viability, T/C (second compound 0.316 µM, first compound 0.316 µM) of the same compound?
Answer: 104%

Question: What about the viability, T/C (second compound 0.316 µM, first compound 1 µM) of the same compound?
Answer: 106%

Question: What about the viability, T/C (second compound 0.316 µM, first compound 3.16 µM) of the same compound?
Answer: 125%

Question: What about the viability, T/C (second compound 0.316 µM, first compound 10 µM) of the same compound?
Answer: 105%

Question: And the viability, T/C [7]?
Answer: 85.9%

Question: What about the viability, T/C [8] of the same compound?
Answer: 114%

Question: What about the viability, T/C (second compound 1 µM, first compound 0.316 µM) of the same compound?
Answer: 93.4%

Question: And the viability, T/C (second compound 1 µM, first compound 1 µM)?
Answer: 106%

Question: And the viability, T/C (second compound 1 µM, first compound 3.16 µM)?
Answer: 139%

Question: What about the viability, T/C (second compound 1 µM, first compound 10 µM) of the same compound?
Answer: 124%

Question: What about the viability, T/C [9] of the same compound?
Answer: 92.2%

Question: And the viability, T/C [10]?
Answer: 98.4%

Question: What about the viability, T/C (second compound 3.16 µM, first compound 0.316 µM) of the same compound?
Answer: 108%

Question: What about the viability, T/C (second compound 3.16 µM, first compound 1 µM) of the same compound?
Answer: 112%

Question: And the viability, T/C (second compound 3.16 µM, first compound 3.16 µM)?
Answer: 116%

Question: What about the viability, T/C (second compound 3.16 µM, first compound 10 µM) of the same compound?
Answer: 117%

Question: What about the viability, T/C [11] of the same compound?
Answer: 97%

Question: And the viability, T/C [12]?
Answer: 79.3%

Question: What about the viability, T/C (second compound 10 µM, first compound 0.316 µM) of the same compound?
Answer: 92.5%

Question: What about the viability, T/C (second compound 10 µM, first compound 1 µM) of the same compound?
Answer: 122%

Question: What about the viability, T/C (second compound 10 µM, first compound 3.16 µM) of the same compound?
Answer: 109%

Question: And the viability, T/C (second compound 10 µM, first compound 10 µM)?
Answer: 114%

Question: Which results are given for `Cn1ncnc1[C@H]1c2n[nH]c(=O)c3cc(F)cc(c23)N[C@@H]1c1ccc(F)cc1` + COC1C(OC(N)=O)C(O)C(Oc2ccc3c(O)c(NC(=O)c4ccc(O)c(CC=C(C)C)c4)c(=O)oc3c2C)OC1(C)C?
Answer: IC50 (second compound 0.0316 µM): > 0.1 µM; IC50 (second compound 0.1 µM): > 0.1 µM; IC50 (second compound 0.316 µM): > 0.1 µM; IC50 (second compound 1 µM): > 0.1 µM; IC50 (second compound 3.16 µM): > 0.1 µM; IC50 (second compound 10 µM): > 0.1 µM; viability, T/C (second compound 0.0316 µM, first compound 0.000316 µM): 85%; viability, T/C (second compound 0.0316 µM, first compound 0.001 µM): 97.4%; viability, T/C (second compound 0.0316 µM, first compound 0.00316 µM): 93%; viability, T/C (second compound 0.0316 µM, first compound 0.01 µM): 99.9%; viability, T/C [1]: 85.9%; viability, T/C [2]: 97.1%; viability, T/C (second compound 0.1 µM, first compound 0.000316 µM): 97.9%; viability, T/C (second compound 0.1 µM, first compound 0.001 µM): 92.7%; viability, T/C (second compound 0.1 µM, first compound 0.00316 µM): 70.2%; viability, T/C (second compound 0.1 µM, first compound 0.01 µM): 98.5%; viability, T/C [3]: 93.4%; viability, T/C [4]: 79.9%; viability, T/C (second compound 0.316 µM, first compound 0.000316 µM): 106%; viability, T/C (second compound 0.316 µM, first compound 0.001 µM): 87.5%; viability, T/C (second compound 0.316 µM, first compound 0.00316 µM): 97.6%; viability, T/C (second compound 0.316 µM, first compound 0.01 µM): 103%; viability, T/C [5]: 86%; viability, T/C [6]: 83.2%; viability, T/C (second compound 1 µM, first compound 0.000316 µM): 97.2%; viability, T/C (second compound 1 µM, first compound 0.001 µM): 86.3%; viability, T/C (second compound 1 µM, first compound 0.00316 µM): 88.6%; viability, T/C (second compound 1 µM, first compound 0.01 µM): 83.7%; viability, T/C [7]: 93.4%; viability, T/C [8]: 78.9%; viability, T/C (second compound 3.16 µM, first compound 0.000316 µM): 86%; viability, T/C (second compound 3.16 µM, first compound 0.001 µM): 106%; viability, T/C (second compound 3.16 µM, first compound 0.00316 µM): 87.2%; viability, T/C (second compound 3.16 µM, first compound 0.01 µM): 84.5%; viability, T/C [9]: 94.3%; viability, T/C [10]: 80.5%; viability, T/C (second compound 10 µM, first compound 0.000316 µM): 101%; viability, T/C (second compound 10 µM, first compound 0.001 µM): 80.8%; viability, T/C (second compound 10 µM, first compound 0.00316 µM): 86.9%; viability, T/C (second compound 10 µM, first compound 0.01 µM): 104%; viability, T/C [11]: 88.7%; viability, T/C [12]: 83.2%
